Test results reported in US20210354140A1, “MICROFLUIDIC DEVICE AND USES THEREOF” (Bar Ilan University, priority 2020, published 2021).
Entries after “also recorded” stand apart in the source; their conditions may differ. Read-outs that look alike come from different tables or passages of the source.

What was measured:
[1] = tested on: pleural effusion samples from Non-small cell lung carcinoma patients; assay: CSRA of patient pleural effusion samples, Propidium iodide cell viability; assay type: cell-based, human; details: 15 μM, 24-hour exposure; samples from 8 patients
Method: The drug response of pleural effusion samples taken from 8 Non-small cell lung carcinoma patients was tested in a preliminary experiment. […] The genomic analysis could not predict however development of resistance. For each of the samples, the cells were first uploaded into the chip for a 24-hour acclimation period after which the cells were exposed different drugs. The 24 hours response to two […], Alectinib and Crizotinib (15 μM) is shown herein. Cell viability was measured using Propidium iodide, which dyes the nuclei of dead cells (magenta). It was known that the biopsies originated from patients that were treated with Alectinib and Crizotinib, however their response to each treatment was not known nor the order in which the drugs were administered, in order to avoid any sort of confirmation bias when collecting and analyzing the data. The moment when the pleural effusions were collected during the treatments was neither known. Crizotinib, like Alectinib is an ALK inhibitor and works by operating as a competitive inhibitor to the ATP binding site of the tyrosine kinase enzyme that the ALK gene codes for and in doing so prevents its carcinogenic activity. […] At the end of the 24-hour exposure period, the data from the experiments was analyzed and calculated to determine the survival and or mortality rate of the cells.

[2] = tested on: Non-small cell lung carcinoma patients; details: patients first treated with Alectinib, then replaced with Crizotinib; cited from earlier work
MCF7 cells = assay: Live/dead staining assay in microfluidic device after Docetaxel exposure, MCF7 cells; assay type: cell-based; design: dose or concentration left out as unconfirmed; details: Docetaxel for 2 hours, 48 hours after seeding; live/dead assay at T0, 5, 24, 48 hours; n=47; vs untreated control
Method: The cells were then dissociated from the culture dish at 60-70% confluence with 0.25% trypsin in PBS, resuspended in DMEM containing 10% FBS and introduced into the microfluidic device. […] MCF7/Dx cell line was grown in the presence of 10 ^M doxorubicin and cultured for 4 weeks in drug-free medium prior to use.
The evaluation of anticancer drug effect on cells vitality was conducted in two steps. First, Docetaxel was used, which is one of the first-line chemotherapies used for metastatic breast cancer. […] Then the cells, were incubated with the drug for 2 hours. Cell feeding, by diffusion, commenced until the experiment was finished. Live/dead assay was applied up to 48 hours following drug administration. […]
(§1) Statistical analysis was carried up using Microsoft Excel 2016 Data Analysis package and RStudio (RStudio Team (2015). RStudio: Integrated Development for R. RStudio, Inc., Boston, Mass.) Images were processed with NIS Elements Analysis software (ver. 40.20.01 Nikon, USA). For all experiments, variables are expressed as traditional boxplots, presenting median, maximum, minimum and Interquartiie range (IQR). […] In all cases, significance was defined as p<0.05, one way analysis of variance was evaluated using Anova, while multiple comparison was evaluated using Tukey's range test (post-hoc Anova analysis). […]

293T cells = assay: Live/dead staining assay in microfluidic device after Docetaxel exposure, 293T cells; assay type: cell-based; design: dose or concentration left out as unconfirmed; details: Docetaxel for 2 hours, 48 hours after seeding; live/dead assay at T0, 5, 24, 48 hours
Method: The evaluation of anticancer drug effect on cells vitality was conducted in two steps. First, Docetaxel was used, which is one of the first-line chemotherapies used for metastatic breast cancer. […] Then the cells, were incubated with the drug for 2 hours. Cell feeding, by diffusion, commenced until the experiment was finished. Live/dead assay was applied up to 48 hours following drug administration. After the evaluation of cells response to one drug-Docetaxel the effect was tested of an array of drugs on the cells. The drugs were printed on a glass substrate and their spotted array was aligned to the drug chamber in the microfluidic device.
Custom assays for cells vitality evaluation were applied. […]
as §1

[3] = tested on: cells in microfluidic cell chamber; assay: Dynamics of cell death following Docetaxel treatment (FIG. 6), PI staining in cell chambers; assay type: cell-based; details: Docetaxel 10 uM, 2 hours exposure, 50 drug chambers vs 50 control chambers
Method: FIG. 6A: Live images of a representative cell chamber before (T0) and after (up to 20 hours) exposure to Docetaxel (10 uM). Dead cells were stained with Red (PI).
FIG. 6B: Box plot analysis of the mortality rate (%) of cells following 2 hours of exposure to Docetaxel (10 uM)—T0. Nearly 100 cells chambers were analyzed, 50 following drug exposure and 50 control—no drug exposure. […] Two tail paired T-test analysis were conducted.
Custom assays for cells vitality evaluation were applied. Living cells were stained with Calcein-AM (50 ng/ul in DMEM medium) (Biotest, Israel) which colors the cytoplasm. Dead cells were stained with Propidium Iodide (PI) (Sigma, Israel) (15 ng/ul in DMEM medium), coloring the nuclear. […]
Statistical analysis was carried up using Microsoft Excel 2016 Data Analysis package and RStudio (RStudio Team (2015). RStudio: Integrated Development for R. RStudio, Inc., Boston, Mass.) Images were processed with NIS Elements Analysis software (ver. 40.20.01 Nikon, USA). For all experiments, variables are expressed as traditional boxplots, presenting median, maximum, minimum and Interquartiie range (IQR). […] In all cases, significance was defined as p<0.05, one way analysis of variance was evaluated using Anova, while multiple comparison was evaluated using Tukey's range test (post-hoc Anova analysis).

[4] = tested on: dispersed cells and cell clusters; assay: cells; assay type: cell-based
Method: Cells were exposed twice to Docetaxel once at a concentration of 1 μM and 24 hours later re-exposed to 10 μM Docetaxel for a period of 2 hrs. […] P value was determined using two-tail T-test (n=43).
FIG. 9A: Cells were exposed twice to Docetaxel once at a concentration of 1 μM and 48 hours later a second exposure to 10 μM. Images were taken 24 hours after the second drug exposure T24 (which is 120 hours post seeding).
Cells were exposed to 10 μM Docetaxel for 2 hours. The dynamic of cell death was detected using PI staining. […] Monitoring proceeded up to 28 hours.
Custom assays for cells vitality evaluation were applied. Living cells were stained with Calcein-AM (50 ng/ul in DMEM medium) (Biotest, Israel) which colors the cytoplasm. Dead cells were stained with Propidium Iodide (PI) (Sigma, Israel) (15 ng/ul in DMEM medium), coloring the nuclear. All cells nuclear (live and dead) were stained by Hoechst 33342 stain (Bis-Benzimide H3342 trihydro-chloride, Sigma, Israel) (10 ng/μl in DMEM medium). A solution of all three dyes was prepared and flowed within the chip. The cells were washed with the solution for 20 min at a pressure of 2 psi. Following dyes application, the controlled valves were closed and the device was incubated for 30 min at 37° C. 5% CO2 to allow cells staining. […]

MCF-7 cells [5] = assay: MCF-7 cell response to a printed drug array, live/dead assay; assay type: cell-based; details: drugs spotted at 0, 0.1, 0.5, 0.7 and 1 mM; 2 hours incubation
Method: MCF7 cells response to 4 different drugs (Doxorubicin, Docetaxel, Pacletoxel, Methotrexate) at 4 different concentrations (0.1-1 mM). The drugs were printed on the slide and aligned into drug chamber inside the device. Live/dead assay was performed by double staining dead cells (Red) and live cells (Green).
The evaluation of anticancer drug effect on cells vitality was conducted in two steps. First, Docetaxel was used, which is one of the first-line chemotherapies used for metastatic breast cancer. Docetaxel, at different concentrations (1 uM, 10 uM and 100 uM), was flown into the microfluidics device for 5 minutes, following the cell accommodation period. Then the cells, were incubated with the drug for 2 hours. Cell feeding, by diffusion, commenced until the experiment was finished. Live/dead assay was applied up to 48 hours following drug administration. After the evaluation of cells response to one drug-Docetaxel the effect was tested of an array of drugs on the cells. The drugs were printed on a glass substrate and their spotted array was aligned to the drug chamber in the microfluidic device.
Custom assays for cells vitality evaluation were applied. Living cells were stained with Calcein-AM (50 ng/ul in DMEM medium) (Biotest, Israel) which colors the cytoplasm. Dead cells were stained with Propidium Iodide (PI) (Sigma, Israel) (15 ng/ul in DMEM medium), coloring the nuclear. All cells nuclear (live and dead) were stained by Hoechst 33342 stain (Bis-Benzimide H3342 trihydro-chloride, Sigma, Israel) (10 ng/μl in DMEM medium). A solution of all three dyes was prepared and flowed within the chip. The cells were washed with the solution for 20 min at a pressure of 2 psi. Following dyes application, the controlled valves were closed and the device was incubated for 30 min at 37° C. 5% CO2 to allow cells staining. Next, the valves were opened and the device was washed by phenol-free DMEM medium for 15 min, to remove colures remains.
The drugs, Doxorubicin (Doxorubicin hydrochloride, Tocirs, USA), Docetaxel, Paclitaxel Methotrexate (drugs were supplied with the courtesy of Dr. Levanon, The institute of Oncology, Chaim Sheba Medical Center, Israel), were spotted on a microscope slide at 5 different concentrations (0, 0.1, 0.5, 0.7 and 1 mM) and then covered with the microfluidic device, encompassing the thy drugs inside the drug chamber. Cells were seeded on the device and cultured for 2 hours. Then the valve blocking the drug chamber was opened and the drugs were flooded and allowed to diffuse out and incubated with the cells for 2 hours. A different response was observed dynamics to the different drugs, expressed by different mortality rates.

MCF-7 cells [6] = assay: Doxorubicin treatment specificity in microfluidic device, MCF-7 cells; details: drug sensitive MCF7 cells; 24 hours of 10 μM doxorubicin
[7] = tested on: MCF-7/dx (Doxorubicin resistant cells); assay: Doxorubicin treatment specificity in microfluidic device, Doxorubicin resistant MCF-7/dx cells; details: drug resistant MCF7/Dx cells; 24 hours of 10 μM doxorubicin
[8] = in vivo; cited from earlier work

## CCc1cc2c(cc1N1CCC(N3CCOCC3)CC1)C(C)(C)c1[nH]c3cc(C#N)ccc3c1C2=O [Alectinib]
[1]
  24 hours drug response of patient samples (resistance / sensitivity): All samples were resistant; also recorded: all the patients were resistant
[2]
  patient response to treatment (patient history): developed resistance

## C[C@@H](Oc1cc(-c2cnn(C3CCNCC3)c2)cnc1N)c1c(Cl)ccc(F)c1Cl [Crizotinib]
[1]
  24 hours drug response of patient samples (resistance / sensitivity): varying sensitivity; also recorded: varying from resistance to medium or high response
[2]
  patient response to treatment (patient history): the response was different between patients

## CC(=O)O[C@@]12CO[C@@H]1C[C@H](O)[C@@]1(C)C(=O)[C@H](O)C3=C(C)[C@@H](OC(=O)[C@H](O)[C@@H](NC(=O)OC(C)(C)C)c4ccccc4)C[C@@](O)([C@@H](OC(=O)c4ccccc4)[C@H]21)C3(C)C [Docetaxel]
MCF7 cells
  mortality rate of MCF7 cells post drug exposure: significantly increased (p<0.05) within 5 hours post drug exposure with no further increase in mortality rate up to 48 hours
293T cells
  mortality rate of 293T cells post drug exposure: increase in mortality rate after 5 hrs (p<0.05) with no further deterioration
[3]
  cells vitality immediately after 2 hrs of drug exposure (T0 drug): no differences in cells vitality
[3]; 20 hours
  cells mortality rate twenty hours post cultivation: following drug exposure a further significant increase was observed (p<0.05)
[4]; read-out: Cluster mortality rate (Mean±S.E)
  mortality at 1 µM: 33 ± 5%
[4]; read-out: mortality rate of the dispersed cells population (Mean±S.E)
  mortality at 1 µM: 65 ± 6%
MCF-7 cells [5]
  dose dependence of sensitivity of MCF-7 cells: dose dependence sensitivity was observed
  mortality rate of MCF-7 cells versus drug dose: mortality rate increased starting from the lower dose of drug (0.1 mM) (p<0.05)

## COc1cccc2c1C(=O)c1c(O)c3c(c(O)c1C2=O)C[C@@](O)(C(=O)CO)C[C@@H]3O[C@H]1C[C@H](N)[C@H](O)[C@H](C)O1 [Doxorubicin]
MCF-7 cells [5]
  dose dependence of sensitivity of MCF-7 cells: dose dependence sensitivity was observed
  mortality rate of MCF-7 cells versus drug dose: mortality rate increased starting from the lower dose of drug (0.1 mM) (p<0.05)
MCF-7 cells [6]
  cells showing morphological features of apoptotic/necrotic processes: about 98%
[7]
  morphological features of apoptotic/necrotic processes: almost absent

## CN(Cc1cnc2nc(N)nc(N)c2n1)c1ccc(C(=O)N[C@@H](CCC(=O)O)C(=O)O)cc1 [Methotrexate]
MCF-7 cells [5]
  dose dependence of sensitivity of MCF-7 cells: dose dependence sensitivity was observed
  mortality rate of MCF-7 cells versus drug dose: mortality rate increased starting from the lower dose of drug (0.1 mM) (p<0.05)

## CC(=O)O[C@H]1C(=O)[C@@]2(C)[C@H]([C@H](OC(=O)c3ccccc3)[C@]3(O)C[C@H](OC(=O)[C@H](O)[C@@H](NC(=O)c4ccccc4)c4ccccc4)C(C)=C1C3(C)C)[C@]1(OC(C)=O)CO[C@@H]1C[C@@H]2O [Paclitaxel]
MCF-7 cells [5]
  dose dependence of sensitivity of MCF-7 cells: dose dependence sensitivity was observed
  mortality rate of MCF-7 cells versus drug dose: mortality rate increased starting from the lower dose of drug (0.1 mM) (p<0.05)

## Infliximab: purified, recombinant DNA-derived chimeric human-mouse IgG monoclonal antibody against TNF-α
[8]
  serum half-life: 9.5 days
  time detectable in serum after infusion treatment: 8 weeks
